PubChem BioAssay AID330 (DTP/NCI, 2004)
Where “and” joins values, the source holds several entries; their conditions need not be identical. Identical values can stand only once. Toxic doses and inconclusive results are not listed.

Test system: P388 leukemia ip, CD2F1 mice, survival T/C
Test: NCI In Vivo Anticancer Drug Screen. Data for tumor model P388 Leukemia (intraperitoneal) in CD2F1 (CDF1) mice
Conditions: endpoint: median survival time, higher = longer survival
Procedure, shortened: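 Mice carrying the transplanted tumor received test compound or vehicle. Survival was recorded in each group, and the value is the treated-group measurement divided by that of the vehicle-treated control group.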

[1] = dose: 50.0 mg/kg/injection, schedule: Q01DX005 (ip), vehicle: Klucel (hydroxypropylcellulose) (HPC)
[2] = dose: 100.0 mg/kg/injection, schedule: Q01DX005 (ip), vehicle: Klucel (hydroxypropylcellulose) (HPC)
[3] = dose: 200.0 mg/kg/injection, schedule: Q01DX005 (ip), vehicle: Klucel (hydroxypropylcellulose) (HPC)
[4] = dose: 50.0 mg/kg/injection, schedule: Q01DX009 (ip), vehicle: saline with Tween-80

Question: How did the T/C (dose: 6.25 mg/kg/injection, schedule: Q01DX001 (ip), vehicle: saline with Tween-80) turn out when `Ic1sc(I)c(I)c1I` was run?
Answer: 100 % of control

Question: And the T/C (dose: 12.5 mg/kg/injection, schedule: Q01DX001 (ip), vehicle: saline with Tween-80)?
Answer: 100 % of control

Question: And the T/C (dose: 25.0 mg/kg/injection, schedule: Q01DX001 (ip), vehicle: saline with Tween-80)?
Answer: 105 % of control

Question: Which T/C (dose: 100.0 mg/kg/injection, schedule: Q04DX003 (ip), vehicle: saline with Tween-80) does the source give for `O=C(c1ccccc1)C1CCCN(c2ccccc2)S1(=O)=O` (configuration not stated) here?
Answer: 98 % of control

Question: And the T/C (dose: 200.0 mg/kg/injection, schedule: Q04DX003 (ip), vehicle: saline with Tween-80)?
Answer: 104 % of control

Question: What about the T/C (dose: 400.0 mg/kg/injection, schedule: Q04DX003 (ip), vehicle: saline with Tween-80) of the same compound?
Answer: 94 % of control

Question: Which T/C (dose: 50.0 mg/kg/injection, schedule: Q01DX001 (ip), vehicle: saline sonified) does the source give for `O=C(O)C1C(C(=O)O)C2(Cl)C(Cl)=C(Cl)C1(Cl)C2(Cl)Cl.[Cu+2]` (configuration not stated) here?
Answer: 104 % of control

Question: And the T/C (dose: 100.0 mg/kg/injection, schedule: Q01DX001 (ip), vehicle: saline sonified)?
Answer: 118 % of control

Question: What does the source list for `CC1OC(OC2C(Oc3cc(O)c4c(=O)cc(-c5ccc(OC6OC(CO)C(O)C(O)C6OC6OC(C)C(O)C(O)C6O)c(O)c5)oc4c3)OC(CO)C(O)C2O)C(O)C(O)C1O` (configuration not stated)?
Answer: T/C (dose: 3.0 mg/kg/injection, schedule: Q01DX009 (ip), vehicle: Klucel (hydroxypropylcellulose) (HPC)): 106 % of control; T/C (dose: 6.0 mg/kg/injection, schedule: Q01DX009 (ip), vehicle: Klucel (hydroxypropylcellulose) (HPC)): 95 % of control; T/C (dose: 12.0 mg/kg/injection, schedule: Q01DX009 (ip), vehicle: Klucel (hydroxypropylcellulose) (HPC)): 93 % of control; T/C (dose: 24.0 mg/kg/injection, schedule: Q01DX009 (ip), vehicle: Klucel (hydroxypropylcellulose) (HPC)): 95 % of control

Question: With `O=c1c2ccccc2n(-c2ccccc2)c2cc(Cl)ccc12` as the compound, how does the T/C [1] read?
Answer: 100 % of control

Question: And the T/C [2]?
Answer: 102 % of control

Question: And the T/C [3]?
Answer: 100 % of control

Question: How did the T/C (dose: 0.78 mg/kg/injection, schedule: Q01DX009 (ip), vehicle: saline) turn out when `CC(C)[CH2][Sn]1([CH2]C(C)C)[O]CCNCC[O]1` was run?
Answer: 105 % of control

Question: And the T/C (dose: 1.56 mg/kg/injection, schedule: Q01DX009 (ip), vehicle: saline)?
Answer: 109 % of control

Question: What about the T/C (dose: 3.12 mg/kg/injection, schedule: Q01DX009 (ip), vehicle: saline) of the same compound?
Answer: 88 % of control

Question: Which results are given for `COc1c(O)c2c(c3cc(C(=O)N4CCc5c4c(O)c(OC)c4[nH]c(C(=O)N6CC7CC78C6=CC(=O)c6[nH]cc(C)c68)cc54)[nH]c13)CCN2C(N)=O` (configuration not stated)?
Answer: T/C (dose: 0.01 mg/kg/injection, schedule: Q04DX003 (ip), vehicle: other): 190 % of control; T/C (dose: 0.03 mg/kg/injection, schedule: Q04DX003 (ip), vehicle: other): 190 % of control and 211 % of control; T/C (dose: 0.04 mg/kg/injection, schedule: Q04DX003 (ip), vehicle: DMSO): 150 % of control; T/C (dose: 0.1 mg/kg/injection, schedule: Q04DX003 (ip), vehicle: DMSO): 166 % of control; T/C (dose: 0.1 mg/kg/injection, schedule: Q04DX003 (ip), vehicle: other): 118 % of control and 98 % of control; T/C (dose: 2.6 micrograms/kg/injection, schedule: Q01DX009 (ip), vehicle: other): 120 % of control; T/C (dose: 4.0 micrograms/kg/injection, schedule: Q01DX009 (ip), vehicle: other): 119 % of control; T/C (dose: 10.0 micrograms/kg/injection, schedule: Q04DX003 (ip), vehicle: other): 163 % of control; T/C (dose: 13.0 micrograms/kg/injection, schedule: Q01DX009 (ip), vehicle: DMSO): 94 % of control; T/C (dose: 13.0 micrograms/kg/injection, schedule: Q04DX003 (ip), vehicle: other): 124 % of control; T/C (dose: 20.0 micrograms/kg/injection, schedule: Q04DX003 (ip), vehicle: other): 120 % of control; T/C (dose: 21.6 micrograms/kg/injection, schedule: Q01DX009 (ip), vehicle: DMSO): 95 % of control; T/C (dose: 30.0 micrograms/kg/injection, schedule: Q04DX003 (ip), vehicle: other): 181 % of control; T/C (dose: 36.0 micrograms/kg/injection, schedule: Q01DX009 (ip), vehicle: DMSO): 98 % of control; T/C (dose: 60.0 micrograms/kg/injection, schedule: Q01DX009 (ip), vehicle: DMSO): 93 % of control; T/C (dose: 64.8 micrograms/kg/injection, schedule: Q04DX003 (ip), vehicle: DMSO): 153 % of control; T/C (dose: 64.8 micrograms/kg/injection, schedule: Q04DX003 (ip), vehicle: saline): 156 % of control; T/C (dose: 88.5 micrograms/kg/injection, schedule: Q01DX001 (ip), vehicle: other): 153 % of control; T/C (dose: 100.0 micrograms/kg/injection, schedule: Q01DX009 (ip), vehicle: DMSO): 95 % of control; T/C (dose: 100.0 micrograms/kg/injection, schedule: Q04DX003 (ip), vehicle: other): 93 % of control; T/C (dose: 108.0 micrograms/kg/injection, schedule: Q04DX003 (ip), vehicle: DMSO): 161 % of control; T/C (dose: 133.0 micrograms/kg/injection, schedule: Q01DX001 (ip), vehicle: other): 155 % of control; T/C (dose: 180.0 micrograms/kg/injection, schedule: Q04DX003 (ip), vehicle: DMSO): 170 % of control; T/C (dose: 200.0 micrograms/kg/injection, schedule: Q01DX001 (ip), vehicle: other): 162 % of control; T/C (dose: 300.0 micrograms/kg/injection, schedule: Q04DX003 (ip), vehicle: saline): 105 % of control; T/C (dose: 450.0 micrograms/kg/injection, schedule: Q01DX001 (ip), vehicle: other): 157 % of control

Question: What does the source list for `Cc1cc(=O)c2c([nH]1)c1c(c3[nH]c(C)cc(=O)c32)Oc2ccccc2O1`?
Answer: T/C (dose: 50.0 mg/kg/injection, schedule: Q01DX005 (ip), vehicle: saline with Tween-80): 93 % of control; T/C (dose: 100.0 mg/kg/injection, schedule: Q01DX005 (ip), vehicle: saline with Tween-80): 95 % of control; T/C (dose: 200.0 mg/kg/injection, schedule: Q01DX005 (ip), vehicle: saline with Tween-80): 97 % of control

Question: How did the T/C (dose: 12.5 mg/kg/injection, schedule: Q04DX003 (ip), vehicle: saline with Tween-80) turn out when `COC(=O)C(Cc1ccc(N(CCCl)CCCl)cc1)N=NNc1nc[nH]c1C(N)=O` (configuration not stated) was run?
Answer: 163 % of control

Question: What about the T/C (dose: 25.0 mg/kg/injection, schedule: Q04DX003 (ip), vehicle: saline with Tween-80) of the same compound?
Answer: 168 % of control

Question: What about the T/C (dose: 33.0 mg/kg/injection, schedule: Q04DX003 (ip), vehicle: saline with Tween-80) of the same compound?
Answer: 172 % of control

Question: What about the T/C (dose: 50.0 mg/kg/injection, schedule: Q04DX003 (ip), vehicle: saline with Tween-80) of the same compound?
Answer: 181 % of control and 213 % of control

Question: And the T/C (dose: 75.0 mg/kg/injection, schedule: Q04DX003 (ip), vehicle: saline with Tween-80)?
Answer: 231 % of control

Question: What does the source list for `CCN(CC)CCCC(C)Nc1ncnc2ccc(OC)cc12` (configuration not stated)?
Answer: T/C (dose: 50.0 mg/kg/injection, schedule: Q01DX005 (ip), vehicle: saline): 94 % of control; T/C (dose: 100.0 mg/kg/injection, schedule: Q01DX005 (ip), vehicle: saline): 99 % of control; T/C (dose: 200.0 mg/kg/injection, schedule: Q01DX005 (ip), vehicle: saline): 94 % of control

Question: What does the source list for `Cc1ccc(S(=O)(=O)/C=C/c2ccc([N+](=O)[O-])o2)cc1`?
Answer: T/C (dose: 50.0 mg/kg/injection, schedule: Q01DX009 (ip), vehicle: suspension in saline): 108 % of control; T/C (dose: 100.0 mg/kg/injection, schedule: Q01DX009 (ip), vehicle: suspension in saline): 104 % of control; T/C (dose: 200.0 mg/kg/injection, schedule: Q01DX009 (ip), vehicle: suspension in saline): 104 % of control

Question: What does the source list for `C[Si](C)(C)C1c2ccccc2-c2[nH]c3ccccc3c21` (configuration not stated)?
Answer: T/C (dose: 6.25 mg/kg/injection, schedule: Q01DX009 (ip), vehicle: Klucel (hydroxypropylcellulose) (HPC)): 101 % of control; T/C (dose: 12.5 mg/kg/injection, schedule: Q01DX009 (ip), vehicle: Klucel (hydroxypropylcellulose) (HPC)): 87 % of control; T/C (dose: 25.0 mg/kg/injection, schedule: Q01DX009 (ip), vehicle: Klucel (hydroxypropylcellulose) (HPC)): 102 % of control

Question: Which results are given for `Nc1cc(Cl)c(Cl)cc1Cl`?
Answer: T/C (dose: 12.5 mg/kg/injection, schedule: Q01DX009 (ip), vehicle: saline with Tween-80): 100 % of control; T/C (dose: 25.0 mg/kg/injection, schedule: Q01DX009 (ip), vehicle: saline with Tween-80): 95 % of control; T/C [4]: 90 % of control

Question: Which results are given for `CC(=O)c1c(O)c2c(=O)n(C)c(C)cc2n(C)c1=O`?
Answer: T/C [1]: 100 % of control; T/C [2]: 100 % of control; T/C [3]: 98 % of control

Question: For `CCCCOCN(COCCCC)C12CC3CC(CC(C3)C1)C2`, which T/C [4] is on record?
Answer: 113 % of control

Question: Which results are given for `Cc1nc2ccc(CCN3CCN(c4ccccc4Cl)CC3)cc2[nH]1`?
Answer: T/C (dose: 50.0 mg/kg/injection, schedule: Q01DX001 (ip), vehicle: Klucel (hydroxypropylcellulose) (HPC)): 100 % of control; T/C (dose: 100.0 mg/kg/injection, schedule: Q01DX001 (ip), vehicle: Klucel (hydroxypropylcellulose) (HPC)): 108 % of control and 120 % of control; T/C (dose: 200.0 mg/kg/injection, schedule: Q01DX001 (ip), vehicle: Klucel (hydroxypropylcellulose) (HPC)): 116 % of control and 93 % of control

Question: Which T/C (dose: 6.25 mg/kg/injection, schedule: Q01DX001 (ip), vehicle: saline) does the source give for `ClC(Cl)CN(Cc1ccccc1)c1ncc[nH]1` here?
Answer: 105 % of control

Question: And the T/C (dose: 12.5 mg/kg/injection, schedule: Q01DX001 (ip), vehicle: saline)?
Answer: 104 % of control

Question: And the T/C (dose: 25.0 mg/kg/injection, schedule: Q01DX001 (ip), vehicle: saline)?
Answer: 105 % of control

Question: With `CC1C(c2ccccc2)NC(c2ccccc2)C(C)C1O` (configuration not stated) as the compound, how does the T/C [1] read?
Answer: 101 % of control

Question: What about the T/C [2] of the same compound?
Answer: 98 % of control

Question: What about the T/C [3] of the same compound?
Answer: 105 % of control
